Experimental data as given in patent US8362000B2, “Azetidinyl diamides as monoacylglycerol lipase inhibitors” (Janssen Pharmaceutica NV, priority 2009, dated 2013).

These molecules were tested against T1, mutant MGL (Homo sapiens, UniProt Q99685, L169S/L176S) (assay: MGL ThermoFluor assay - mutant). Conditions: ThermoFluor concentration-response, read-out: MGL mutant ThermoFluor Kd.
T1 sequence (Q99685 1-303 L169S/L176S): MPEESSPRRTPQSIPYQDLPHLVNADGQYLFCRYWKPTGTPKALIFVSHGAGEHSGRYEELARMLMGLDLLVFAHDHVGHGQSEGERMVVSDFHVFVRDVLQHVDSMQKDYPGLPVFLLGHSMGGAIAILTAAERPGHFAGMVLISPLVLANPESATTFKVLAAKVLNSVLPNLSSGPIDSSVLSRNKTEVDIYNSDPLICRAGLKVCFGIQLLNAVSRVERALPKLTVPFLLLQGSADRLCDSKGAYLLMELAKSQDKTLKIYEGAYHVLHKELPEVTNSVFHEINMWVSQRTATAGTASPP
Type: binding

SMILES	Kd [nM]
COc1ccc(-c2ccc(C(=O)N3CC(N4CCN(C(=O)c5ccccc5)CC4)C3)cc2)cc1 [Cpd 34, 1-{1-[(4′-Methoxybiphenyl-4-yl)carbonyl]azetidin-3-yl}-4-(phenylcarbonyl)piperazine]	588
O=C(c1ccccc1)N1CCN(C2CN(C(=O)c3ccc(SCc4ccc(Cl)c(Cl)c4)cc3)C2)CC1 [Cpd 417]	66.7
O=C(/C=C/c1ccccc1Br)N1CC(N2CCN(C(=O)c3ccccc3)CC2)C1 [Cpd 104, 1-{1-[(2E)-3-(2-Bromophenyl)prop-2-enoyl]azetidin-3-yl}-4-(phenylcarbonyl)piperazine]	5000
O=C(c1ccc(Oc2ccccn2)cc1)N1CC(N2CCN(C(=O)c3nccs3)CC2)C1 [Cpd 913, 1-(1-{[4-(Pyridin-2-yloxy)phenyl]carbonyl}azetidin-3-yl)-4-(1,3-thiazol-2-ylcarbonyl)piperazine]	1000
CSc1ccc(C(=O)N2CC(N3CCN(C(=O)c4ccccc4)CC3)C2)cc1 [Cpd 470, 1-(1-{[4-(Methylsulfanyl)phenyl]carbonyl}azetidin-3-yl)-4-(phenylcarbonyl)piperazine]	2940
O=C(c1ccccc1)N1CCN(C2CN(C(=O)c3ccc(CNc4c(F)cccc4F)cc3)C2)CC1 [Cpd 556]	97
CN(C)c1ccc(C(=O)N2CC(N3CCN(C(=O)c4ccccc4)CC3)C2)cc1 [Cpd 31, N,N-Dimethyl-4-({3-[4-(phenylcarbonyl)piperazin-1-yl]azetidin-1-yl}carbonyl)aniline]	1430
CC1CN(C2CN(C(=O)c3cccc(Oc4ccccc4)c3)C2)CCN1C(=O)c1nccs1 (stereo not drawn) [Cpd 113]	1110
O=C(c1ccccc1)N1CCN(C2CN(C(=O)c3ccc(-n4ccc(C(F)(F)F)n4)cc3)C2)CC1 [Cpd 622, 1-(Phenylcarbonyl)-4-[1-({4-[3-(trifluoromethyl)-1H-pyrazol-1-yl]phenyl}carbonyl)azetidin-3-yl]piperazine]	3600
CC(C)(C)OC(=O)N1CCC(c2ccccc2C(=O)N2CC(N3CCN(C(=O)c4ccccc4)CC3)C2)C1 (stereo not drawn) [Cpd 111, tert-Butyl 3-[2-({3-[4-(phenylcarbonyl)piperazin-1-yl]azetidin-1-yl}carbonyl)phenyl]pyrrolidine-1-carboxylate]	10000
Cc1c(-c2ccccc2)oc2c(C(=O)N3CC(N4CCN(C(=O)c5ccccc5)CC4)C3)cccc2c1=O [Cpd 107, 3-Methyl-2-phenyl-8-({3-[4-(phenylcarbonyl)piperazin-1-yl]azetidin-1-yl}carbonyl)-4H-chromen-4-one]	556
O=C(c1ccccc1)N1CCN(C2CN(C(=O)c3cc(-c4ccccc4)oc3C(F)(F)F)C2)CC1 [Cpd 624, 1-(Phenylcarbonyl)-4-(1-{[5-phenyl-2-(trifluoromethyl)furan-3-yl]carbonyl}azetidin-3-yl)piperazine]	880
O=C(c1ccccc1)N1CCN(C2CN(C(=O)c3sc4cc(F)ccc4c3C3CC3)C2)CC1 [Cpd 528]	49
COc1cc(NCc2ccccc2)c(Cl)cc1C(=O)N1CC(N2CCN(C(=O)c3ccccc3)CC2)C1 [Cpd 529]	317
O=C(c1nccs1)N1CCN(C2CN(C(=O)C3CCC(c4ccccc4)CC3)C2)CC1 (stereo not drawn) [Cpd 475]	25
O=C(c1ccccc1)N1CCN(C2CN(C(=O)c3ccc(-c4ccccc4)c(F)c3)C2)CC1 [Cpd 81, 1-{1-[(2-Fluorobiphenyl-4-yl)carbonyl]azetidin-3-yl}-4-(phenylcarbonyl)piperazine]	66.7
O=C(c1ccccc1)N1CCN(C2CN(C(=O)c3ccc(-c4ccccc4)cc3)C2)C(CO)C1 (stereo not drawn) [Cpd 458, {1-[1-(Biphenyl-4-ylcarbonyl)azetidin-3-yl]-4-(phenylcarbonyl)piperazin-2-yl}methanol]	6670
Cc1nc(-c2ccc(F)cc2)sc1C(=O)N1CC(N2CCN(C(=O)c3ccccc3)CC2)C1 [Cpd 621, 1-(1-{[2-(4-Fluorophenyl)-4-methyl-1,3-thiazol-5-yl]carbonyl}azetidin-3-yl)-4-(phenylcarbonyl)piperazine]	263

Now from value to molecule:

Kd [nM]	SMILES
172	Cc1nc(-c2ccc(Cl)cc2)sc1C(=O)N1CC(N2CCN(C(=O)c3ccccc3)CC2)C1 [Cpd 619]
6670	Cc1ccc(Sc2ncccc2C(=O)N2CC(N3CCN(C(=O)c4cscn4)CC3)C2)cc1 [Cpd 479]
333	O=C(c1ccc2[nH]ccc2c1)N1CC(N2CCN(C(=O)c3nccs3)CC2)C1 [Cpd 911, 5-({3-[4-(1,3-Thiazol-2-ylcarbonyl)piperazin-1-yl]azetidin-1-yl}carbonyl)-1H-indole]
8	O=C(c1ccc(SCc2ccc(Cl)cc2)cc1)N1CC(N2CCN(C(=O)c3nccs3)CC2)C1 [Cpd 415]
8.5	O=C(c1ccc(CNc2cccc(Cl)c2)cc1)N1CC(N2CCN(C(=O)c3nccs3)CC2)C1 [Cpd 455]
1000	O=C(c1ccccc1)N1CCN(C2CN(C(=O)c3ccc(-n4cnc5ccccc54)cc3)C2)CC1 [Cpd 48, 1-[4-({3-[4-(Phenylcarbonyl)piperazin-1-yl]azetidin-1-yl}carbonyl)phenyl]-1H-benzimidazole]
334	Cc1nc(COc2ccc(Cl)cc2)sc1C(=O)N1CC(N2CCN(C(=O)c3cscn3)CC2)C1 [Cpd 966]
83.3	CCCn1ccc2cc(C(=O)N3CC(N4CCN(C(=O)c5ccccc5)CC4)C3)ccc21 [Cpd 42, 5-({3-[4-(Phenylcarbonyl)piperazin-1-yl]azetidin-1-yl}carbonyl)-1-propyl-1H-indole]
6	COc1cc(C(=O)N2CC(N3CCN(C(=O)c4nccs4)CC3)C2)ccc1-c1ccccc1 [Cpd 1377]
2330	O=C(c1ccccc1)N1CCN(C2CN(C(=O)c3ccc(Oc4ccc(Br)cn4)cc3)C2)CC1 [Cpd 532]
254	O=C(c1ccccc1)N1CCN(C2CN(C(=O)C3CCC(c4ccc(Cl)cc4)CC3)C2)CC1 (stereo not drawn) [Cpd 503]
80	O=C(c1ccccc1)N1CCN(C2CN(C(=O)c3ccc(-c4ccc(Cl)cc4)cc3)C2)CC1 [Cpd 78, 1-{1-[(4′-Chlorobiphenyl-4-yl)carbonyl]azetidin-3-yl}-4-(phenylcarbonyl)piperazine]
37	O=C(c1ccccc1)N1CCN(C2CN(C(=O)c3ccc(-c4ccccc4Cl)cc3)C2)CC1 [Cpd 36, 1-{1-[(2′-Chlorobiphenyl-4-yl)carbonyl]azetidin-3-yl}-4-(phenylcarbonyl)piperazine]

Same assay, conditions: ThermoFluor thermal stability binding assay, read-out: MGL mutant ThermoFluor Kd

SMILES	Kd [nM]
O=C(c1cscn1)N1CCN(C2CN(C(=O)c3cc(-c4ccccc4)oc3C(F)(F)F)C2)CC1 [Cpd 1397]	500
O=C(c1nccs1)N1CCN(C2CN(C(=O)c3ccc(-c4cccc(C(F)(F)F)c4)cc3F)C2)CC1 [Cpd 244, 1-(1-{[3-Fluoro-3′-(trifluoromethyl)biphenyl-4-yl]carbonyl}azetidin-3-yl)-4-(1,3-thiazol-2-ylcarbonyl)piperazine]	2
O=C(c1cscn1)N1CCN(C2CN(C(=O)c3csc(-c4cc(Cl)cc(Cl)c4)n3)C2)CC1 [Cpd 1395]	1810
O=C(c1ccc(-c2ccccc2)cc1)N1CC(N2CCN(C(=O)c3cscn3)C(c3ccccc3)C2)C1 (stereo not drawn) [Cpd 1481]	> 31200
CS(=O)(=O)N1CCCc2cc(C(=O)N3CC(N4CCN(C(=O)c5ccccc5)CC4)C3)ccc21 [Cpd 363, 1-(Methylsulfonyl)-6-({3-[4-(phenylcarbonyl)piperazin-1-yl]azetidin-1-yl}carbonyl)-1,2,3,4-tetrahydroquinoline]	6760
O=C(c1nccs1)N1CCN(C2CN(C(=O)c3cccc4nc(Cc5cccc(F)c5)[nH]c34)C2)CC1 [Cpd 990]	1000
O=C(c1ccccc1)N1CCN(C2CN(C(=O)c3ccc(OCc4ccc5ccccc5n4)cc3)C2)CC1 [Cpd 560]	652
O=C(c1ccc(OCc2ccc3ccccc3n2)cc1)N1CC(N2CCN(C(=O)c3cscn3)CC2)C1 [Cpd 970]	535

Next, values leading:

Kd [nM]	SMILES
2030	O=C(c1ccccc1)N1CCN(C2CN(C(=O)c3ccc(OCc4cccnc4)c(Cl)c3)C2)CC1 [Cpd 409]
33.3	Cc1cc(-c2cccc(C(F)(F)F)c2)ccc1C(=O)N1CC(N2CCN(C(=O)c3ccccc3)CC2)C1 [Cpd 238, 1-(1-{[3-Methyl-3′-(trifluoromethyl)biphenyl-4-yl]carbonyl}azetidin-3-yl)-4-(phenylcarbonyl)piperazine]
143	CS(=O)(=O)c1cccc(-c2ccc(C(=O)N3CC(N4CCN(C(=O)c5ccccc5)CC4)C3)cc2)c1 [Cpd 231, 1-(1-{[3′-(Methylsulfonyl)biphenyl-4-yl]carbonyl}azetidin-3-yl)-4-(phenylcarbonyl)piperazine]
12400	CC(=O)N1CCC(c2ccc(C(=O)N3CC(N4CCN(C(=O)c5ccccc5)CC4)C3)cc2)CC1 [Cpd 546]
5000	CC(=O)N1c2ccc(-c3cccc(C(F)(F)F)c3)cc2CCC1C(=O)N1CC(N2CCN(C(=O)c3nccs3)CC2)C1 (stereo not drawn) [Cpd 917]
246	O=C(c1cscn1)N1CCN(C2CN(C(=O)c3cccc4nc(-c5ccc(Cl)cc5)oc34)C2)CC1 [Cpd 1380, 2-(4-Chlorophenyl)-7-({3-[4-(1,3-thiazol-4-ylcarbonyl)piperazin-1-yl]azetidin-1-yl}carbonyl)-1,3-benzoxazole]
> 76700	CC(=O)N1c2ccc(Br)cc2CCC1C(=O)N1CC(N2CCN(C(=O)c3ccccc3)CC2)C1 (stereo not drawn) [Cpd 378]
4	Cc1cc(C(=O)N2CC(N3CCN(C(=O)c4cscn4)CC3)C2)ccc1-c1cccc(C(F)(F)F)c1 [Cpd 242, 1-(1-{[2-Methyl-3′-(trifluoromethyl)biphenyl-4-yl]carbonyl}azetidin-3-yl)-4-(1,3-thiazol-4-ylcarbonyl)piperazine]

Same assay, conditions: ThermoFluor, compound concentration measured by qNMR, read-out: MGL mutant ThermoFluor qKd (using qNMR conc.)

Kd [nM]	SMILES
264	Cc1ccnc(-n2ccc3cc(C(=O)N4CC(N5CCN(C(=O)C(F)(F)F)CC5)C4)ccc32)c1 [Cpd 1199, 1-(4-Methylpyridin-2-yl)-5-({3-[4-(trifluoroacetyl)piperazin-1-yl]azetidin-1-yl}carbonyl)-1H-indole]
